Data: US10793563B2, “GCN2 inhibitors and uses thereof” (Merck Patent GmbH, priority 2018, dated 2020)
pIC50, pKi: −log10 of the molar value.

How the values were obtained:
GCN2 kinase = GCN2 kinase (Homo sapiens (Human), UniProt Q9P2K8); assay: GCN2 Enzyme Inhibition Assay (Transcreener ADP2 fluorescence polarization); type: biochemical; conditions: 280 μM ATP, 200 μM (RS)7 peptide, 4 nM GCN2, 25° C.; for pKi: Ki(app)
How it was run: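 Transcreener ADP2 fluorescence polarization detection of ADP from 4 nM GCN2 with (RS)7 substrate in 25 mM Tris-HCl pH 7.5, 50 mM NaCl, 10 mM MgCl2, 1 mM DTT. Compound pre-incubated with enzyme 10 min at 25 °C; reaction started by ATP, run 1 h at 25 °C. IC50 and Ki(app) by tight-binding fit.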

[1] = biological target: intracellular GCN2 (phosphorylation of the GCN2 substrate eIF2α) (Homo sapiens (Human), UniProt Q9P2K8); assay: GCN2 Cellular Inhibition Assay (AlphaScreen SureFire P-eIF2α Ser51, borrelidin-treated U2OS cells); type: cell-based; conditions: 10 μM borrelidin, 1 h, phosphorylated eIF2α Ser51, read-out: GCN2 Biomarker (IC50)
How it was run: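 U2OS cells adhered overnight, then given compound (top 40 μM, 4-fold serial dilutions) plus 10 μM borrelidin for 1 h at 37 °C. Lysates assayed for eIF2α phospho-Ser51 by AlphaScreen SureFire; % inhibition versus borrelidin-only wells.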

Chain of intracellular GCN2 (phosphorylation of the GCN2 substrate eIF2α) (Q9P2K8 whole entry): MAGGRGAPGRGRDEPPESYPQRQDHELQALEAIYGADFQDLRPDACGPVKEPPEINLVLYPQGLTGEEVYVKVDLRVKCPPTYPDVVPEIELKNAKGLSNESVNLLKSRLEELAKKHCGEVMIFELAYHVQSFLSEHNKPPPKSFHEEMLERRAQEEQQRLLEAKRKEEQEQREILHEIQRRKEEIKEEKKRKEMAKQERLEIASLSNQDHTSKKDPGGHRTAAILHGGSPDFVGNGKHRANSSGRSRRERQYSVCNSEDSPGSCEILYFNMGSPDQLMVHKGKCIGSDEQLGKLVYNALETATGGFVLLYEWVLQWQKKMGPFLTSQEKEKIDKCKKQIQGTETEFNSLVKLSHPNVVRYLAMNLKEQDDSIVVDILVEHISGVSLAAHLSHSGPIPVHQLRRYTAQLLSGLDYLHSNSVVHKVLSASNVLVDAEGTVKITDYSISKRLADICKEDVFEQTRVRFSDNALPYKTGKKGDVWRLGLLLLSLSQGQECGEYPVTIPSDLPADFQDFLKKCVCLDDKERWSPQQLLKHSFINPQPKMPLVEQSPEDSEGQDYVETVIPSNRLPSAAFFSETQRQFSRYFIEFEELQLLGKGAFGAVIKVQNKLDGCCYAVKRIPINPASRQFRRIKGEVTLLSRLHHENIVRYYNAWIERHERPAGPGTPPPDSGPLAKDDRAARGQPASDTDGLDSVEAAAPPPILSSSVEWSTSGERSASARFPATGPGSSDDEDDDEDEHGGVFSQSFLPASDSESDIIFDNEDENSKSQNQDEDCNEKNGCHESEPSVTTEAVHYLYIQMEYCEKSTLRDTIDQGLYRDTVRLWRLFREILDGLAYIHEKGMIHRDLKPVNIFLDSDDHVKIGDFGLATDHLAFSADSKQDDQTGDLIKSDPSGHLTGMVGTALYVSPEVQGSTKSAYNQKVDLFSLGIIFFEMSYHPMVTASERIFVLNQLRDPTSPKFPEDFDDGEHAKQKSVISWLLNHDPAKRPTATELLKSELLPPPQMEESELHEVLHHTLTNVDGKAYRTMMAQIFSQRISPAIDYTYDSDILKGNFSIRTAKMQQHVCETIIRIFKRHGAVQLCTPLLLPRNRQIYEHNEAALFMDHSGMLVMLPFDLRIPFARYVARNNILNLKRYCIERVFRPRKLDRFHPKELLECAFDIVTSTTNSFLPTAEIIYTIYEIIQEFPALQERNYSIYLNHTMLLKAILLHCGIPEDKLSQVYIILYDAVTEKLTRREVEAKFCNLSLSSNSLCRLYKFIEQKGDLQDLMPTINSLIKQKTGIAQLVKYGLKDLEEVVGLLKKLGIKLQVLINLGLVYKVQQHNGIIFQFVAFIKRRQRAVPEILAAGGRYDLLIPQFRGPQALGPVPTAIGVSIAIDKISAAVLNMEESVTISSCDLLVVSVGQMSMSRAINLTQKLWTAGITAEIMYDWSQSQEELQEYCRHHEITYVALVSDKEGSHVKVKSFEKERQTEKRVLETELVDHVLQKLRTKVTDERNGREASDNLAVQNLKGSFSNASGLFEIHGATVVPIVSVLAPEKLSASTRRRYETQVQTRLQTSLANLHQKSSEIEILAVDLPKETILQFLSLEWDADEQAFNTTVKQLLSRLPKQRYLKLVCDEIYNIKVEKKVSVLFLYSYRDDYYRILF
Chain of GCN2 kinase (Q9P2K8 whole entry): as above

pIC50 (GCN2 kinase)	pIC50 [1]	pKi (GCN2 kinase)	Compound
7.00 to 8.00	5.30 to 6.30	–	O=C(C1CC1(F)F)N1CCN(c2ccnc(-c3cnc4ccc(C(F)(F)F)cn34)n2)CC1c1cn[nH]c1 (stereo not shown) [I-400, (2-(1H-pyrazol-4-yl)-4-(2-(6-(trifluoromethyl)imidazo[1,2-a]pyridin-3-yl)pyrimidin-4-yl)piperazin-1-yl)(2,2-difluorocyclopropyl)methanone]
7.00 to 8.00	5.30 to 6.30	–	CC1(C)CN(c2ccnc(-c3cnc4ccc(C(F)(F)F)cn34)n2)CCN1S(C)(=O)=O [I-339, 3-(4-(3,3-dimethyl-4-(methylsulfonyl)piperazin-1-yl)pyrimidin-2-yl)-6-(trifluoromethyl)imidazo[1,2-a]pyridine]
–	5.30 to 6.30	7.00 to 8.00	CS(=O)(=O)NC[C@@H]1CN(c2nc(-c3cnc4ccc(C(F)(F)F)cn34)cs2)CCO1 [I-111, (S)—N-((4-(4-(6-(trifluoromethyl)imidazo[1,2-a]pyridin-3-yl)thiazol-2-yl)morpholin-2-yl)methyl)methanesulfonamide]
7.00 to 8.00	5.30 to 6.30	–	O=C1NC[C@@]12CCCN(c1ccnc(-c3cnc4ccc(C(F)(F)F)cn34)n1)C2 [I-295, (R)-6-(2-(6-(trifluoromethyl)imidazo[1,2-a]pyridin-3-yl)pyrimidin-4-yl)-2,6-diazaspiro[3.5]nonan-1-one]
–	< 5.30	7.00 to 8.00	CC(=O)N1CCN(c2cccc(-c3cnc4ccc(C(F)(F)F)cn34)n2)CC1 [I-11, 1-[4-[6-[6-(Trifluoromethyl)imidazo[1,2-a]pyridin-3-yl]-2-pyridyl]piperazin-1-yl]ethanone]
> 8.00	> 6.30	–	NC(=O)[C@H]1CCCN(c2nccc(-c3cnc4ccc(C(F)(F)F)cn34)n2)C1 [I-153, (S)-1-(4-(6-(trifluoromethyl)imidazo[1,2-a]pyridin-3-yl)pyrimidin-2-yl)piperidine-3-carboxamide]
> 8.00	> 6.30	–	NC(=O)[C@H]1CCCN(c2nc(-c3cnc4ccc(C(F)(F)F)cn34)ncc2F)C1 [I-278, (S)-1-(5-fluoro-2-(6-(trifluoromethyl)imidazo[1,2-a]pyridin-3-yl)pyrimidin-4-yl)piperidine-3-carboxamide]
7.00 to 8.00	< 5.30	–	O=C(CO)N1CCN(c2ccnc(-c3cnc4ccc(C(F)(F)F)cn34)n2)CC1c1cn[nH]c1 (stereo not shown) [I-421, 1-(2-(1H-pyrazol-4-yl)-4-(2-(6-(trifluoromethyl)imidazo[1,2-a]pyridin-3-yl)pyrimidin-4-yl)piperazin-1-yl)-2-hydroxyethan-1-one]
7.00 to 8.00	5.30 to 6.30	–	N#C[C@H]1CCCN(c2ccnc(-c3cnc4ccc(C(F)(F)F)cn34)n2)C1 [I-227, (S)-1-(2-(6-(trifluoromethyl)imidazo[1,2-a]pyridin-3-yl)pyrimidin-4-yl)piperidine-3-carbonitrile]
7.00 to 8.00	5.30 to 6.30	–	CN(C)C(=O)C1CCCN(c2ccnc(-c3cnc4ccc(C(F)(F)F)cn34)n2)C1 (stereo not shown) [I-130, N,N-dimethyl-1-(2-(6-(trifluoromethyl)imidazo[1,2-a]pyridin-3-yl)pyrimidin-4-yl)piperidine-3-carboxamide]

Continued, compound first:

Compound	pIC50 (GCN2 kinase)	pIC50 [1]	pKi (GCN2 kinase)
Cc1[nH]ncc1[C@H]1CN(c2ccnc(-c3cnc4cc(F)c(Cl)cn34)n2)C[C@@H](C)O1 [I-540, (2R,6S)-4-(2-(6-chloro-7-fluoroimidazo[1,2-a]pyridin-3-yl)pyrimidin-4-yl)-2-methyl-6-(5-methyl-1H-pyrazol-4-yl)morpholine]	> 8.00	> 6.30	–
C[C@H]1[C@@H](CNS(C)(=O)=O)N(C2CC2)[C@@H](C)CN1c1ccnc(-c2cnc3ccc(C(F)(F)F)cn23)n1 (stereo in doubt) [I-491, N-(((2R,3 S,6S)-1-cyclopropyl-3,6-dimethyl-4-(2-(6-(trifluoromethyl)imidazo[1,2-a]pyridin-3-yl)pyrimidin-4-yl)piperazin-2-yl)methyl)methanesulfonamide]	7.00 to 8.00	> 6.30	–
Cc1cnc(N2C[C@@H](C)C[C@H](c3cn[nH]c3)C2)nc1-c1cnc2ccc(Cl)cn12 (stereo in doubt) [I-197, 6-chloro-3-(5-methyl-2-((3 S, 5R)-3-methyl-5-(1H-pyrazol-4-yl)piperidin-1-yl)pyrimidin-4-yl)imidazo[1,2-a]pyridine]	7.00 to 8.00	> 6.30	–
CC1CN(c2ccnc(-c3cnc4ccc(Cl)cn34)n2)C(C)C(c2cn[nH]c2)N1 (stereo not shown) [I-36, 6-chloro-3-[4-[2,5-dimethyl-3-(1H-pyrazol-4-yl)piperazin-1-yl]pyrimidin-2-yl]imidazo[1,2-a]pyridine]	–	> 6.30	> 8.00
Cc1noc([C@H]2CN(c3ccnc(-c4cnc5ccc(Cl)cn45)n3)C[C@@H](C)O2)n1 [I-63]	–	> 6.30	> 8.00
Cc1[nH]ncc1[C@H]1C[C@H](O)CN(c2ccnc(-c3cnc4ccc(C(F)(F)F)cn34)n2)C1 [I-307, (3 S, 5R)-5-(5-methyl-1H-pyrazol-4-yl)-1-(2-(6-(trifluoromethyl)imidazo[1,2-a]pyridin-3-yl)pyrimidin-4-yl)piperidin-3-ol]	7.00 to 8.00	5.30 to 6.30	–
FC(F)(F)c1ccc2ncc(-c3nccc(N4CCN(C[C@H]5CC56CCOCC6)[C@H](c5cn[nH]c5)C4)n3)n2c1 [I-523, 3-(4-((R)-4-(((S)-6-oxaspiro[2.5]octan-1-yl)methyl)-3-(1H-pyrazol-4-yl)piperazin-1-yl)pyrimidin-2-yl)-6-(trifluoromethyl)imidazo[1,2-a]pyridine]	7.00 to 8.00	> 6.30	–
Cc1[nH]ncc1[C@@H]1CN(c2nccc(-c3cnc4ccc(Cl)cn34)n2)C[C@@H](C)O1 (stereo in doubt) [I-182, (2R,6R)-4-(4-(6-chloroimidazo[1,2-a]pyridin-3-yl)pyrimidin-2-yl)-2-methyl-6-(5-methyl-1H-pyrazol-4-yl)morpholine]	7.00 to 8.00	> 6.30	–
C[C@@H]1CN(c2nccc(-c3cnc4cc(F)c(Cl)cn34)n2)C[C@H](c2cn[nH]c2)O1 [I-273, (2R,6S)-4-(4-(6-chloro-7-fluoroimidazo[1,2-a]pyridin-3-yl)pyrimidin-2-yl)-2-methyl-6-(1H-pyrazol-4-yl)morpholine]	> 8.00	> 6.30	–
OCC1(c2ccccc2)CCCN(c2ccnc(-c3cnc4cc(F)c(Cl)cn34)n2)C1 (stereo not shown) [I-85, {1-[2-(6-Chloro-7-fluoro-imidazo[1,2-a]pyridin-3-yl)-pyrimidin-4-yl]-3-phenyl-piperidin-3-yl}-methanol]	–	< 5.30	6.00 to 7.00
Cc1[nH]ncc1[C@H]1CN(c2ccnc(-c3cnc4ccc(C(F)(F)F)cn34)n2)C[C@H](C)O1 [I-147, (2 S,6 S)-2-methyl-6-(5-methyl-1H-pyrazol-4-yl)-4-(2-(6-(trifluoromethyl)imidazo[1,2-a]pyridin-3-yl)pyrimidin-4-yl)morpholine]	7.00 to 8.00	> 6.30	–
COCCn1cc([C@H]2C[C@H](C)CN(c3nccc(-c4cnc5ccc(C(F)(F)F)cn45)n3)C2)cn1 [I-144, 3-(2-((3R,5S)-3-(1-(2-methoxyethyl)-1H-pyrazol-4-yl)-5-methylpiperidin-1-yl)pyrimidin-4-yl)-6-(trifluoromethyl)imidazo[1,2-a]pyridine]	6.00 to 7.00	> 6.30	–
FC(F)(F)c1ccc2ncc(-c3nccc(N4CCN(C[C@@H]5CC56CCOCC6)[C@H](c5cn[nH]c5)C4)n3)n2c1 [I-520, 3-(4-((R)-4-(((R)-6-oxaspiro[2.5]octan-1-yl)methyl)-3-(1H-pyrazol-4-yl)piperazin-1-yl)pyrimidin-2-yl)-6-(trifluoromethyl)imidazo[1,2-a]pyridine]	7.00 to 8.00	> 6.30	–
c1ccc(Oc2ccc3ncc(-c4nccc(N5CCC[C@@H](c6cn[nH]c6)C5)n4)n3c2)cc1 [I-399]	7.00 to 8.00	5.30 to 6.30	–
C[C@@H]1CN(c2nccc(-c3cnc4cc(F)c(Cl)cn34)n2)C[C@@H](c2cn[nH]c2)O1 [I-274, (2R,6R)-4-(4-(6-chloro-7-fluoroimidazo[1,2-a]pyridin-3-yl)pyrimidin-2-yl)-2-methyl-6-(1H-pyrazol-4-yl)morpholine]	7.00 to 8.00	5.30 to 6.30	–
CC(C)(C)c1ncc(CN2CCN(c3ccnc(-c4cnc5ccc(C(F)(F)F)cn45)n3)CC2c2cn[nH]c2)[nH]1 (stereo not shown) [I-373, 3-(4-(4-((2-(tert-butyl)-1H-imidazol-5-yl)methyl)-3-(1H-pyrazol-4-yl)piperazin-1-yl)pyrimidin-2-yl)-6-(trifluoromethyl)imidazo[1,2-a]pyridine]	> 8.00	> 6.30	–
CS(=O)(=O)NC[C@@H]1CN(c2nccc(-c3cnc4ccc(C(F)F)cn34)n2)CCO1 [I-17, N-[[(2S)-4-[4-[6-(Difluoromethyl)imidazo[1,2-a]pyridin-3-yl]pyrimidin-2-yl]morpholin-2-yl]methyl]methanesulfonamide]	–	> 6.30	> 8.00
NC(=O)[C@H]1CCCN(c2ccnc(-c3cnc4cc(F)c(Cl)cn34)n2)C1 [I-48, (3S)-1-[2-(6-Chloro-7-fluoro-imidazo[1,2-a]pyridin-3-yl)pyrimidin-4-yl]piperidine-3-carboxamide]	–	> 6.30	> 8.00
C[C@H]1[C@H](c2cn[nH]c2)N(C2COC2)CCN1c1ccnc(-c2cnc3ccc(C(F)(F)F)cn23)n1 [I-364, 3-(4-((2S,3 S)-2-methyl-4-(oxetan-3-yl)-3-(1H-pyrazol-4-yl)piperazin-1-yl)pyrimidin-2-yl)-6-(trifluoromethyl)imidazo[1,2-a]pyridine]	6.00 to 7.00	< 5.30	–
